This note sets out measurements from patent publication US12486218B2, “Compounds advantageous in the treatment of central nervous system diseases and disorders” (AurimMed Pharma, Inc., priority 2008, dated 2025).

Data set [1] concerns mice. Description: Minimal motor impairment (MID50), mice i.p. Particulars: mice, i.p.
Experimental: The animal testing was performed according to methods known in the relevant art.
Data set [2] has as its system rats. Put plainly: Hippocampal Kindled Rats model. Type of data set: in vivo. Particulars: Rattus norvegicus.
Data set [3] concerns kainate (KA) receptors. Description: Electrophysiology, kainate receptor currents. Type of data set: cell-based. Particulars: at 100 μM, holding potential −70 mV. The text has this: The mechanisms of action of many currently marketed anticonvulsant drugs are not fully understood. Although numerous molecular targets exist wherein anticonvulsants may exert an effect, the final common pathway appears to be through modulation of voltage-gated and/or neurotransmitter-gated ion channels. Thus, the common link among the various proposed mechanisms involves the ability of an anticonvulsant to modulate ion channel function. Presently, a number of prototype anticonvulsants are thought to exert their action (at least in part) by reducing sustained, high-frequency repetitive firing of action potentials by modulating voltage-dependent sodium (Na+) channels. The effect of promising candidate substances on voltage-gated Na+ channels can be assessed using state-of-the-art electrophysiological techniques.

Data set [4] concerns rats. Put plainly: Preliminary Hippocampal Kindling Screening in rats (i.p.). The class given is in vivo. To be noted: at 100 mg/kg.
The target in data set [5] is CYP-450 2C19 (Homo sapiens, UniProt P33261). Put plainly: In vitro human CYP-450 study, 2C19. The class given is in vitro ADME. Particulars: human enzyme. An excerpt:
(§1) On the other hand, it is an inhibitor for 2C19, 2D6, 2A6 and 2C9.

For data set [6], the target named is CYP-450 2B6 (Homo sapiens, UniProt P20813). Put plainly: In vitro human CYP-450 study, 2B6. Type of data set: in vitro ADME. Particulars: human enzyme.
Chain of CYP-450 2B6 (P20813 whole entry): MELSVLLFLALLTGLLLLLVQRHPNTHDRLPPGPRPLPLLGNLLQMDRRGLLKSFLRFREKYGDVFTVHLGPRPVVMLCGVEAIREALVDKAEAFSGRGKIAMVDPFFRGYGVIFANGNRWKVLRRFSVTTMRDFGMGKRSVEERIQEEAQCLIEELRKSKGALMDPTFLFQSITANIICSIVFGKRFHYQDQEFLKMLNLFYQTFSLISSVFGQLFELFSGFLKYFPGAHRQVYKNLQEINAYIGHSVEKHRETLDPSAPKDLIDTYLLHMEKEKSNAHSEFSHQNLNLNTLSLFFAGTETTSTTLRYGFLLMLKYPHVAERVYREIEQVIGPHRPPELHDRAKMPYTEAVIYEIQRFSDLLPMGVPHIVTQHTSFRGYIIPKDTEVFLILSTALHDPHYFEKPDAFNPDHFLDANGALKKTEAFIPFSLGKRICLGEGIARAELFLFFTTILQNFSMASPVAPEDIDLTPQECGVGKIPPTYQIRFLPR
Excerpt: as §1

Data set [7] relates to hippocampal neurons. Put plainly: Hippocampal cell loss after pilocarpine-induced SE (FluoroJade B). Type of data set: in vivo. To be noted: given 30 minutes after the first stage 3 convulsive seizure. An excerpt:
Pilocarpine-induced SE results in marked cell loss in the hippocampus, when compared to the naïve vehicle-treated rats, as evidenced by increased FluoroJade B fluorescence in the dentate gyrus (DG), CA1, and CA3 cell layers.

The subject of data set [8] is rat dopaminergic N27 cells. Description: N27 protection assay against oxidative stress (H2O2 or MPP+; MTT and LDH). Type of data set: cell-based. Particulars: drug 24 hours before 200 μM H2O2 or 640 μM MPP+. The essentials:
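Protection mode: N27 cells pretreated with drug at various concentrations for 24 hours, then exposed to 200 μM H2O2 or 640 μM MPP+. Recovery mode: cells damaged by H2O2 first, drug applied afterwards. Viability measured by MTT reduction and cytotoxicity by released LDH.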

Data set [9] has as its system dopaminergic neurons of striatum and Substantia Nigra pars compacta. Description: MPTP-treated mice, immunohistochemical analysis (tyrosine hydroxylase). The class given is in vivo. Particulars: two weeks of oral treatment. How it is done: FIGS. 28A and 28B illustrate immunohistochemical analysis of the brains of mice treated with MPTP. As mentioned above, MPTP causes Parkinson's-like symptoms by destroying dopaminergic neurons in the substantia nigra of the brain. Loss of dopaminergic neurons leads to the loss of the neurotransmitter dopamine and the onset of Parkinson's symptoms. In these tests, tyrosine hydroxylase (TH) levels were measured in the Striatum (St) (FIG. 28A) and TH+ dopaminergic neurons in the Substantia Nigra pars compacta (SNpc) were counted (FIG. 28B) to assess the recovery effect of compound BX treatment from chronic MPTP-induced damage.

Data set [10] deals with mRNA levels of potential targets. Description: PCR array using real-time PCR (mRNA levels). Particulars: mRNA level. The text has this: Tables 11 and 12 illustrate PCR array data using real-time PCR to track mRNA levels for various potential targets of compound BX.
The subject of data set [11] is Drosophila. Description: Rotenone-induced toxicity, Drosophila model of sporadic Parkinson's disease. Type of data set: in vivo. An excerpt:
FIGS. 26A-26C illustrate the effect of compound BX in another Parkinson's disease model. Chronic infusion of rotenone to fruit flies reproduces many features of Parkinson disease. Rotenone is a pesticide that inhibits mitochondrial complex I activity, thus creating an environment of oxidative stress in the cell. Many studies have employed rotenone to generate an experimental animal model of Parkinson's disease (PD) that mimics and elicits PD-like symptoms, such as motor and cognitive decline. […] Compound BX therefore protects Drosophila from the neurotoxic effects of rotenone and may prevent oxidative stress in dopaminergic neurons.

Chain of CYP-450 2C19 (P33261 whole entry): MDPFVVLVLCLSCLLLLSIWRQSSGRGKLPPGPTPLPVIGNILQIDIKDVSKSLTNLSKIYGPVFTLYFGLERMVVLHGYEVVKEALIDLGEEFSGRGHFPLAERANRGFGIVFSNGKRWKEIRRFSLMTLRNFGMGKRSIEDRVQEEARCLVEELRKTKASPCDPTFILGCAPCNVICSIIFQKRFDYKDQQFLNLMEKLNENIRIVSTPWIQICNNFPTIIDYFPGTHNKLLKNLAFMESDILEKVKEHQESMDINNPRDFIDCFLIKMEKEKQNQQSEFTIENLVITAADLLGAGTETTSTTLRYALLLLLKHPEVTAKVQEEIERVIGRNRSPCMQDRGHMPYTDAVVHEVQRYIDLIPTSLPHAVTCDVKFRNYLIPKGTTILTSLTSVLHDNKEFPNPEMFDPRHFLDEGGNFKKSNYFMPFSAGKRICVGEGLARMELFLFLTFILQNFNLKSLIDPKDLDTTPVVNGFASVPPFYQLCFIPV

The ED50 is the midpoint of the dose-response relation. A lower ED50 goes with an effect at a small dose. For `CC(CC(N)=O)c1ccc(OC(F)(F)F)cc1` (racemic) [Compound H, 3-[4-(trifluoromethoxy)-phenyl]butyramide], the “MID50 (median minimal motor impairment dose)” value in data set [1] is listed as 158.98 mg/kg. This compound also yielded an ED50 in [2] of 61 mg/kg. Further, the “kainate (KA) receptor response” value in [3] is recorded as 99±1 % of control. Moreover, the “seizure score, Preliminary Hippocampal Kindling Screening” value in [4] is reported as “zero”. Also, in data set [5], the “inhibition of CYP-450 2C19” value is “inhibitor”. Also, the “inhibition of CYP-450 2B6” value in data set [6] is recorded as “either no or only a remote possibility of inhibiting”.
On to `C[C@H](CC(N)=O)c1ccc(OC(F)(F)F)cc1` (single isomer, unassigned) [Compound BX, R-(−)-3-(4-Trifluoromethoxy-phenyl)butyramide], for which, in data set [7], the “rats with partial neuroprotection (CA3 and hilar neurons of DG preserved)” value was 2. Also, the “animals with complete neuroprotection of hippocampal neurons against SE-induced cell death” value in data set [7] (rats) is reported as 11/15. In addition, the “neuroprotective effect against H2O2 and MPP+ oxidative stresses (MTT and LDH assays)” value in data set [8] is “potent dose-dependent neuroprotective effects”. Further, in data set [9], the “TH+ dopaminergic neurons in the Substantia Nigra pars compacta” value is listed as “stimulated the regrowth of TH+ dopaminergic neurons” and the “tyrosine hydroxylase (TH) levels in the Striatum” value is reported as “induce recovery from MPTP-induced damage in striatum”. Further, in data set [10], the “Fold increase, Als2 (Amyotrophic lateral sclerosis 2 homolog)” value worked out at 109.36; the “Fold increase, Atp2b2 (ATPase, Ca++ transporting, plasma membrane 2)” value is given as −5.85; the “Fold increase, Bdnf (Brain-derived neurotrophic factor)” value turned out to be 2.58; the “Fold increase, Cat (Catalase)” value came out at 82.03. In [10], the “Fold increase, Gclc (Glutamate-cysteine ligase, catalytic subunit)” value was 5.79; the “Fold increase, Htr2a (5-HT (serotonin) receptor 2A)” value is −3.11; the “Fold increase, Ldha (Lactate dehydrogenase A)” value is on record as −9.66; the “Fold increase, Ntrk2 (Neurotrophic tyrosine kinase, receptor, type 2)” value is recorded as −2.07. For the same compound, in data set [10], the “Fold increase, P62630 (Aldehyde oxidase 1)” value turned out to be 2.1; the “Fold increase, Prdx2 (Peroxiredoxin 2)” value came out at 9.66; the “Fold increase, Psmb5 (Proteasome subunit, beta type 5)” value is listed as 3.02; the “Fold increase, Slc6a3 (Solute carrier family 6 (DAT), member 3)” value is recorded as −5.59. In addition, in data set [10], the “Fold increase, Snca (Alpha-Synuclein)” value is recorded as −2.14; the “Fold increase, Syngr3 (Synaptogyrin 3)” value was 2.25; the “Fold increase, Syt1 (Synaptotagmin I)” value is given as 2.19; the “Fold increase, Ubb (Ubiquitin B)” value is 3.23. Besides, the “Fold increase, Ube2k (Ubiquitin-conjugating enzyme E2K)” value in data set [10] is 2.98. Further, in data set [11] (500 μM rotenone), the “survival of Drosophila exposed to rotenone” value is “enhances survival”. Further, in data set [11] (rotenone-treated Drosophila versus mock-treated controls), the “locomotion speed in rotenone-treated flies” value is on record as “increases locomotion speed in rotenone-treated flies to a level virtually indistinguishable from mock-treated controls”.
